Legend:
[1] = molecular target: T1, FPR (formyl peptide receptor) (Homo sapiens, UniProt P21462); settings: cited from earlier work
T1 sequence (P21462 1-350): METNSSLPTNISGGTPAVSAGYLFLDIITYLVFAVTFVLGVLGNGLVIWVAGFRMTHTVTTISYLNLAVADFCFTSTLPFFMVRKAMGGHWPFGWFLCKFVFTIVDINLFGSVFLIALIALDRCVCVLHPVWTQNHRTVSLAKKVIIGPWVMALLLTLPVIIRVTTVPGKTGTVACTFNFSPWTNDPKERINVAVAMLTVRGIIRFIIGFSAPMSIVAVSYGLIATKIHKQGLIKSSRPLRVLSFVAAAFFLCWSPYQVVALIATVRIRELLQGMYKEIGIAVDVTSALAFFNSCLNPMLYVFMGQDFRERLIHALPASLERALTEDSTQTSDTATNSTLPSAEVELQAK

[2] = test system: asthma animal model exhibiting TH1+TH17 immune responses; assay: Therapeutic efficacy of WKYMVm upon intranasal administration in asthma mouse model; type: in vivo, BALB/c mice
Description: (§1) This sensitization was performed on Day 0, 1, 2 and 7. […] Meanwhile, the mice of the positive control were intraperitoneally administered with the same dose of phosphate-buffered saline (PBS). For a negative control, the sensitization on Day 0, 1, 2 and 7 and the challenge on Day 14, 15, 21, and 22 were conducted in the same manner as in the positive control, except that PBS was used instead of the allergen.
Twenty four hours after the final administration of the allergen (Day 23), the mice were examined for bronchial hypersensitivity to methacholine. In this context, the mice were placed in a chamber and allowed to inhale PBS for 3 min with the aid of a nebulizer, followed by measuring penh (enhanced pause) values for 3 min by means of non-invasive whole body plethysmography (Allmedicus, Korea). Likewise, the mice were allowed to inhale 6.25, 12.5, 25 and 50 mg/ml methacholine PBS sequentially, after which penh values for each concentration were measured. A mean of the penh values measured for 3 min was used as an index of airway obstruction.
(§2) Pulmonary inflammation was examined 6 hours (Day 22) and 48 hours (Day 24) after the final administration of the allergen. On Days 22 and 24, after mice were anesthetized by intraperitoneally injecting a mixture of ketamine and xylazine thereto, they were subjected to thoracotomy to expose the trachea into which a catheter was then inserted. After suturing the mice, 1 mL of germ-free PBS was infused twice to wash the airway to give bronchoalveolar lavage fluid (hereinafter referred to as “'BAL fluid”). For analyzing T-lymphocytes in lung tissues, the lung was excised and cells were extracted from local lymph nodes.
(§3) Following centrifugation of the BAL fluid at 3000 rpm and at 4° C. for 10 min, the cell pellet thus formed was suspended in PBS, and rolled on slide using a cytospin and stained with Diff
(§4) Quick. More than 300 inflammatory cells were observed under an optical microscope with […] magnification to determine cell counts by cell types, that is, macrophage, lymphocyte, neutrophil, and eosinophil. In the BAL fluid, the cytokines involved in Th1-mediated inflammation, such as gamma interferon, interferon-g-inducible protein 10 (IP-10), and IL-12, the cytokines involved in Th2-mediated inflammation, such as interleukin IL-4 and IL-13, the cytokines involved in Th17-mediated inflammation, such as IL-17, TNF-α and IL-6, and the cytokines involved in Th2- and Th17-mediated inflammation, such as TGF-13, were quantified using ELISA.
(§5) The excised pulmonary tissue was treated with collagenase type IV (Sigma) to separate cells therefrom. The cells were surface stained with anti-CD3, anti-CD4, and anti-CD8 antibodies (BD Pharmingen), all being conjugated with a fluorescent and the membrane was perforated with Triton, followed by intracellular cytokine staining with anti-IFN-γ, anti-IL-17, anti-IL-10 and anti-IL-4 antibodies. Types of the T lymphocytes introduced into the lung were analyzed using the fluorescence activated cell scanner FACSCalibur (Becton Dickinson).
(§6) After the cells extracted from the lymph nodes were incubated for 72 hours in PBS containing 100 μg/ml OVA, gamma interferon, IL-17 and IL-4, which are the cytokines involved in Th1-, Th17- and Th2-mediated inflammation, were quantified using ELISA.
The assay was performed in the same manner as in the Comparative Example, except that WKYMVm was administered intranasally instead of intraperitoneally. […] The other procedure was performed in the same manner as in the Comparative Example.

[3] = test system: asthma animal model exhibiting TH1+TH17 immune responses; assay: Therapeutic efficacy of WKYMVm upon systemic administration by intraperitoneal injection in asthma mouse model; type: in vivo, BALB/c mice
Description: as §1, with “allergen. […]” for “allergen.”
as §2, §3, §4, §5, §6

Substance: Trp-Lys-Tyr-Met-Val-D-Met-CONH2 [WKYMVm]
- binding to FPR [1]: known to bind
- suppressive effects on bronchial hypersensitivity and pulmonary inflammation ([2]; direct administration via the nasal cavity compared with systemic administration): higher suppressive effects
- inflammatory cell count of BAL fluid ([2]; intranasal 200 μg/kg, Day 22, 6 hours after allergen, vs sham (positive control), FIG. 8): no differences
- release of gamma interferon by immune cells separated from local lymph nodes (in vitro) ([2]; intranasal 200 μg/kg, Day 22, vs positive control, FIG. 9a): higher level
- gamma interferon-expressing CD4+ T cells from pulmonary tissue (count) ([2]; intranasal 200 μg/kg, Day 22, vs positive control, FIG. 9b): higher
- level of gamma interferon in BAL fluid ([2]; intranasal 200 μg/kg, Day 22, vs positive control, FIG. 9c): reduced
- IL-17 released by local lymph node immune cells stimulated in vitro with allergen ([2]; intranasal 200 μg/kg, Day 22, vs positive control, FIG. 10): higher amount
- IL-17-expressing CD4+ T cells from pulmonary tissues (count) ([2]; intranasal 200 μg/kg, Day 22, vs positive control, FIG. 10b): more numerous
- level of IL-17 in BAL fluid ([2]; intranasal 200 μg/kg, Day 22, vs positive control, FIG. 10c): reduced
- expression of Th2 cytokines in T cells of pulmonary tissues ([2]; intranasal 200 μg/kg, Day 22, vs positive control, FIG. 11a): reduced
- expression level of IL-10 in T cells of pulmonary tissues ([2]; intranasal 200 μg/kg, Day 22, vs positive control, FIG. 11b): increased
- release of IP-10 in BAL fluid ([2]; intranasal 200 μg/kg, Day 22, vs positive control, FIG. 12a): reduced
- release of IL-12p40 in BAL fluid ([2]; intranasal 200 μg/kg, Day 22, vs positive control, FIG. 12b): reduced
- release of TNF-α in BAL fluid ([2]; intranasal 200 μg/kg, Day 22, vs positive control, FIG. 12c): lower levels
- level of MCP-1 in BAL fluid ([2]; intranasal 200 μg/kg, Day 22, vs positive control, FIG. 12e): lower levels
- level of MIP-1a in BAL fluid ([2]; intranasal 200 μg/kg, Day 22, vs positive control, FIG. 12f): lower levels
- release of IL-1β in BAL fluid ([2]; intranasal 200 μg/kg, Day 22, vs positive control, FIG. 12d): lower levels
- release of IL-17 into BAL fluid ([2]; intranasal 200 μg/kg, Day 24, vs positive control, FIG. 15): increased
- release of TGF-β from inflammatory cells (BAL fluid) ([2]; intranasal 200 μg/kg, Day 24, vs positive control, FIG. 15b): significantly reduced
- level of IL-12p40 in BAL fluid ([2]; intranasal 200 μg/kg, Day 24, vs positive control, FIG. 16a): higher levels
- level of IP-10 in BAL fluid ([2]; intranasal 200 μg/kg, Day 24, vs positive control, FIG. 16b): higher levels
- inflammatory cell count in BAL fluid ([3]; i.p. 4 mg/kg, Day 22, 6 hours after final allergen, vs sham (positive control), FIG. 2): increase
- release of gamma interferon by inflammatory cells separated from pulmonary tissue ([3]; i.p. 4 mg/kg, Day 22, FIG. 3a): increased
- level of IP-10 in BAL fluid ([3]; i.p. 4 mg/kg, Day 22, FIG. 3b): increased levels
- level of IL-12p40 in BAL fluid ([3]; i.p. 4 mg/kg, Day 22, FIG. 3c): increased levels
- number of IL-17-expressing CD4+ T cells from pulmonary tissues ([3]; i.p. 4 mg/kg, Day 22, FIG. 4a): increase in number
- level of IL-17 released to BAL fluid ([3]; i.p. 4 mg/kg, Day 22, FIG. 4b): increase
- level of IL-6 in BAL fluid ([3]; i.p. 4 mg/kg, Day 22, FIG. 5a): increased levels
- level of TNF-α in BAL fluid ([3]; i.p. 4 mg/kg, Day 22, FIG. 5b): increased levels
- inflammatory cell count in BAL ([3]; i.p. 4 mg/kg, Day 24, 48 hours after final allergen, vs sham, FIG. 6): there was a difference
- level of IL-12p40 (ELISA) ([3]; i.p. 4 mg/kg, Day 24, vs sham, FIG. 7a): no significant differences
- level of TGF-β (ELISA) ([3]; i.p. 4 mg/kg, Day 24, vs sham, FIG. 7b): no significant differences
- pulmonary/respiratory inflammation (overall conclusion) ([3]; systemic (intraperitoneal) administration): did not ameliorate

From patent US20120060834A1, “PHARMACEUTICAL PREPARATION TO BE ADMINISTERED INTO RESPIRATORY ORGANS FOR TREATING OR PREVENTING INFLAMMATORY RESPIRATORY DISEASES, AND METHOD FOR TREATING OR PREVENTING SUCH DISEASES” (Postech Academy-Industry Foundation, priority 2009, published 2012)
